Target: T1, Bcl-2 protein (Recombinant Human Bcl-2 Protein) (Homo sapiens, UniProt P10415)
T1 construct: purchased Novus Biologicals NBP2-34889
Test: AS-MS evaluation of binding of the Example 4 mixture library (1200 compounds/well) to Bcl-2, ASMS ratio (%)
How it was run: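 A pooled 1200-compound mixture (20 nM each final) was incubated with 20 μM recombinant human Bcl-2 in pH 7.4 Tris-HCl buffer with NaCl, Tween-20 and DTT for 1 h at 23° C. in the dark. Bound ligands were separated by spin-column SEC and measured by reverse-phase LC/MS; ASMS ratio (%) was calculated against protein-free unfiltered standard and protein-free SEC blank.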

[1] = AS-MS, mixture of 1200 compounds/well, Bcl-2 protein, replicate n = 1
[2] = AS-MS, mixture of 1200 compounds/well, Bcl-2 protein, replicate n = 2
[3] = AS-MS, Example 4 mixture library, Bcl-2, replicate n = 1
[4] = AS-MS, Example 4 mixture library, Bcl-2, replicate n = 2
[5] = replicate n = 1, mixture library, value belongs to the MS peak assigned to the compound
[6] = replicate n = 2, mixture library, value belongs to the MS peak assigned to the compound

T1 sequence (P10415 whole entry): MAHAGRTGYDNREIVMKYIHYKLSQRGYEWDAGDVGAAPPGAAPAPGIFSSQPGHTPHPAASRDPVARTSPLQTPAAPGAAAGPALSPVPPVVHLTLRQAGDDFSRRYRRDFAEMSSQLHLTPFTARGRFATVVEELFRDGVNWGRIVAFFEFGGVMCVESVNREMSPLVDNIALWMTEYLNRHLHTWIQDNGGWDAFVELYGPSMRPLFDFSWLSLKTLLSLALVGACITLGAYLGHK

SMILES | ASMS ratio (%) n = 1 [3] [%] | ASMS ratio (%) n = 2 [4] [%] | also measured
CCCNC(=O)c1ccc(N2CCN(Cc3cc(-c4cncc(OCC)c4)cc(C(F)(F)F)c3)CC2)nn1 [Compound B1M088-01] |  |  | ASMS ratio (%) n = 1 [1]: 0.0%; ASMS ratio (%) n = 2 [2]: 0.0%
CCOc1cccc(C#Cc2ccccc2CN2CCN(c3ccc(C(=O)NS(=O)(=O)c4ccc(NCCSc5ccccc5)c(C(F)(F)F)c4)cc3)CC2)c1 [Compound B2R069-01, 4-[4-[[2-[2-(3-Ethoxyphenyl)ethynyl]phenyl]methyl]piperazin-1-yl]-N-[4-(2-phenylsulfanylethylamino)-3-(trifluoromethyl)phenyl]sulfonylbenzamide] | 12.3 | −18.5 | 
CCOc1cccc(-c2ccc(CN3CCN(c4ccc(C(=O)NS(=O)(=O)c5ccc(NCCSc6ccccc6)c(C(F)(F)F)c5)cc4)CC3)c(OC)c2)c1 [Compound B2R053-01, 4-[4-[[4-(3-Ethoxyphenyl)-2-methoxyphenyl]methyl]piperazin-1-yl]-N-[4-(2-phenylsulfanylethylamino)-3-(trifluoromethyl)phenyl]sulfonylbenzamide] | −15.0 | 0.0 | 
CCOc1cncc(-c2csc(CN3CCN(c4ccc(C(=O)NS(=O)(=O)c5ccc(NCCSc6ccccc6)c(C(F)(F)F)c5)nn4)CC3)c2)c1 [Compound B2R094-01, 6-[4-[[4-(5-Ethoxypyridin-3-yl)thiophen-2-yl]methyl]piperazin-1-yl]-N-[4-(2-phenylsulfanylethylamino)-3-(trifluoromethyl)phenyl]sulfonylpyridazine-3-carboxamide] | 18.8 | 11.9 | 
CCOc1cncc(-c2csc(CN3CCN(c4ccc(C(=O)NS(C)(=O)=O)nn4)CC3)c2)c1 [Compound B2I094-01, 6-[4-[[4-(5-Ethoxypyridin-3-yl)thiophen-2-yl]methyl]piperazin-1-yl]-N-methylsulfonylpyridazine-3-carboxamide] |  |  | ASMS ratio (%) n = 1 [5]: 0.0%; ASMS ratio (%) n = 2 [6]: 0.0%
CCOc1cncc(-c2ccc(CN3CCN(c4ccc(C(=O)NS(C)(=O)=O)cc4)CC3)c3ccccc23)c1 [Compound B2I066-01, 4-[4-[[4-(5-Ethoxypyridin-3-yl)naphthalen-1-yl]methyl]piperazin-1-yl]-N-methylsulfonylbenzamide] |  |  | ASMS ratio (%) n = 1 [5]: 0.0%; ASMS ratio (%) n = 2 [6]: 0.0%
CCOc1cccc(C#Cc2ccccc2C(=O)N2CCN(c3ccc(C(=O)NS(=O)(=O)c4ccc(NCCSc5ccccc5)c(C(F)(F)F)c4)nn3)CC2)c1 [Compound B2R007-01, 6-[4-[2-[2-(3-Ethoxyphenyl)ethynyl]benzoyl]piperazin-1-yl]-N-[4-(2-phenylsulfanylethylamino)-3-(trifluoromethyl)phenyl]sulfonylpyridazine-3-carboxamide] | 0.0 |  | 
CCOc1cccc(-c2cc(CN3CCN(c4ccc(C(=O)NS(=O)(=O)c5ccc(NCCSc6ccccc6)c([N+](=O)[O-])c5)nn4)CC3)cc(OC(F)(F)F)c2)c1 [Compound B2Q089-01, 6-[4-[[3-(3-Ethoxyphenyl)-5-(trifluoromethoxy)phenyl]methyl]piperazin-1-yl]-N-[3-nitro-4-(2-phenylsulfanylethylamino)phenyl]sulfonylpyridazine-3-carboxamide] |  |  | ASMS ratio (%) n = 2 (Example 4 mixture library, 1200 compounds/well, Bcl-2 protein, replicate n = 2, value belongs to the MS peak assignable to the compound): −15.0%
CCOc1cncc(-c2ccc(CN3CCN(c4ccc(C(=O)NS(=O)(=O)c5ccc(NCCSc6ccccc6)c(C(F)(F)F)c5)cc4)CC3)c(OC)c2)c1 [Compound B2R054-01, 4-[4-[[4-(5-Ethoxypyridin-3-yl)-2-methoxyphenyl]methyl]piperazin-1-yl]-N-[4-(2-phenylsulfanylethylamino)-3-(trifluoromethyl)phenyl]sulfonylbenzamide] | 3.3 | −0.8 | 
CCOc1cccc(-c2ccc(CN3CCN(c4ccc(C(=O)NS(=O)(=O)C(C)(C)C)nn4)CC3)cc2C)c1 [Compound B2L073-01] |  |  | ASMS ratio (%) n = 1 [5]: 0.0%; ASMS ratio (%) n = 2 [6]: 0.0%
CCOc1cncc(-c2cc(CN3CCN(c4ccc(C(=O)NS(C)(=O)=O)cc4)CC3)cc(OCC)c2)c1 [Compound B2I056-01, 4-[4-[[3-Ethoxy-5-(5-ethoxypyridin-3-yl)phenyl]methyl]piperazin-1-yl]-N-methylsulfonylbenzamide] |  |  | ASMS ratio (%) n = 1 [5]: 0.0%; ASMS ratio (%) n = 2 [6]: 0.0%
CCOc1cncc(-c2ccc(C(=O)N3CCN(c4ccc(C(=O)NS(=O)(=O)CCC(F)(F)F)cc4)CC3)cc2F)c1 [Compound B2N028-01, 4-[4-[4-(5-Ethoxypyridin-3-yl)-3-fluorobenzoyl]piperazin-1-yl]-N-(3,3,3-trifluoropropylsulfonyl)benzamide] | −0.7 | −0.9 | 
CCOc1cccc(-c2cc(CN3CCN(c4ccc(C(=O)NS(=O)(=O)c5ccc(NCCSc6ccccc6)c(C(F)(F)F)c5)nn4)CC3)cc(C(F)(F)F)c2)c1 [Compound B2R087-01] | 3.8 | 7.1 | 
CCOc1cncc(-c2csc(CN3CCN(c4ccc(C(=O)NS(=O)(=O)CCC(F)(F)F)cc4)CC3)c2)c1 [Compound B2N068-01, 4-[4-[[4-(5-Ethoxypyridin-3-yl)thiophen-2-yl]methyl]piperazin-1-yl]-N-(3,3,3-trifluoropropylsulfonyl)benzamide] | 0.0 | 0.5 | 
CCOc1cccc(C#Cc2cc(C(=O)N3CCN(c4ccc(C(=O)NS(=O)(=O)c5ccc(NCCSc6ccccc6)c(C(F)(F)F)c5)cc4)CC3)cc(C(F)(F)F)c2)c1 [Compound B2R041-01, 4-[4-[3-[2-(3-Ethoxyphenyl)ethynyl]-5-(trifluoromethyl)benzoyl]piperazin-1-yl]-N-[4-(2-phenylsulfanylethylamino)-3-(trifluoromethyl)phenyl]sulfonylbenzamide] | 18.0 | 0.0 | 
CCOc1cncc(-c2ccccc2CN2CCN(c3ccc(C(=O)NS(=O)(=O)c4ccc(NCCSc5ccccc5)c(C(F)(F)F)c4)nn3)CC2)c1 [Compound B2R072-01] | 21.4 | 11.4 | 
CCOc1cccc(C#Cc2cncc(C(=O)N3CCN(c4ccc(C(=O)NS(=O)(=O)CCC(F)(F)F)cc4)CC3)c2)c1 [Compound B2N031-01, 4-[4-[5-[2-(3-Ethoxyphenyl)ethynyl]pyridine-3-carbonyl]piperazin-1-yl]-N-(3,3,3-trifluoropropylsulfonyl)benzamide] | 0.0 | 0.0 | 
CCOc1cncc(-c2ccc(C(=O)N3CCN(c4ccc(C(=O)NS(=O)(=O)c5ccc(NCCSc6ccccc6)c(C(F)(F)F)c5)nn4)CC3)cc2C)c1 [Compound B2R004-01, 6-[4-[4-(5-Ethoxypyridin-3-yl)-3-methylbenzoyl]piperazin-1-yl]-N-[4-(2-phenylsulfanylethylamino)-3-(trifluoromethyl)phenyl]sulfonylpyridazine-3-carboxamide] | 0.0 | 0.0 | 
CCOc1cncc(-c2csc(C(=O)N3CCN(c4ccc(C(=O)NS(=O)(=O)C(C)(C)C)cc4)CC3)c2)c1 [Compound B2L024-01, N-tert-Butylsulfonyl-4-[4-[4-(5-ethoxypyridin-3-yl)thiophene-2-carbonyl]piperazin-1-yl]benzamide] |  |  | ASMS ratio (%) n = 1 [5]: 0.0%; ASMS ratio (%) n = 2 [6]: 0.0%
CCCNC(=O)c1ccc(N2CCN(C(=O)c3ccc(-c4cncc(OCC)c4)c(F)c3)CC2)cc1 [Compound B1M028-01] |  |  | ASMS ratio (%) n = 1 [1]: 0.0%; ASMS ratio (%) n = 2 [2]: 0.0%
CCCNC(=O)c1ccc(N2CCN(Cc3cc(-c4cncc(OCC)c4)cs3)CC2)nn1 [Compound B1M094-01] |  |  | ASMS ratio (%) n = 1 [1]: −1.5%; ASMS ratio (%) n = 2 [2]: −2.1%
CCOc1cncc(-c2cc(CN3CCN(c4ccc(C(=O)NS(=O)(=O)C(C)(C)C)nn4)CC3)cc(OCC)c2)c1 [Compound B2L082-01] | 2.6 | −1.2 | 
CCOc1cccc(-c2cc(CN3CCN(c4ccc(C(=O)NS(C)(=O)=O)nn4)CC3)cc(OC(C)C)c2)c1 [Compound B2I083-01, 6-[4-[[3-(3-Ethoxyphenyl)-5-propan-2-yloxyphenyl]methyl]piperazin-1-yl]-N-methylsulfonylpyridazine-3-carboxamide] |  |  | ASMS ratio (%) n = 1 [5]: 0.0%; ASMS ratio (%) n = 2 [6]: 0.0%
CCOc1cccc(-c2ccc(CN3CCN(c4ccc(C(=O)NS(=O)(=O)c5ccc(NCCSc6ccccc6)c(C(F)(F)F)c5)cc4)CC3)cc2C)c1 [Compound B2R047-01, 4-[4-[[4-(3-Ethoxyphenyl)-3-methylphenyl]methyl]piperazin-1-yl]-N-[4-(2-phenylsulfanylethylamino)-3-(trifluoromethyl)phenyl]sulfonylbenzamide] | 6.6 | −7.8 | 
CCOc1cccc(-c2ccc(C(=O)N3CCN(c4ccc(C(=O)NS(=O)(=O)CCC(F)(F)F)nn4)CC3)c3ccccc23)c1 [Compound B2N013-01, 6-[4-[4-(3-Ethoxyphenyl)naphthalene-1-carbonyl]piperazin-1-yl]-N-(3,3,3-trifluoropropylsulfonyl)pyridazine-3-carboxamide] | 0.0 | 0.0 | 
CCOc1cncc(C#Cc2ccccc2C(=O)N2CCN(c3ccc(C(=O)NS(=O)(=O)c4ccc(NCCSc5ccccc5)c(C(F)(F)F)c4)nn3)CC2)c1 [Compound B2R008-01, 6-[4-[2-[2-(5-Ethoxypyridin-3-yl)ethynyl]benzoyl]piperazin-1-yl]-N-[4-(2-phenylsulfanylethylamino)-3-(trifluoromethyl)phenyl]sulfonylpyridazine-3-carboxamide] | 0.0 | 19.5 | 
